Source: ChEMBL document CHEMBL3508693 (2016)

Key:
[1] = AUC/dose (0-168h) of unlabeled aliskiren hemifumarate following single intravenous administration of aliskiren hemifumarate at 1 mg.Kg-1 level in marmoset; type: ADME, organism-based, Callithrix jacchus, Plasma; conditions: in vivo
[2] = Tmax of aliskiren hemifumarate following single dosing of SPP100B oral solution at 40 mg level studied on day 1 in men; type: ADME, organism-based; conditions: male, human, plasma
[3] = AUC(0-24h) of aliskiren hemifumarate following 2 week oral dosing of aliskiren hemifumarate at 100 mg.Kg-1 level studied on day 1 in female Callithrix jacchus; type: ADME, organism-based; conditions: marmoset, plasma
[4] = Absorption (0-96h) of unlabeled aliskiren hemifumarate following oral administration of aliskiren hemifumarate at 100 mg.Kg-1 level in rat; type: ADME, organism-based; conditions: Albino HAN:WIST, plasma, read-out: Absorption
[5] = AUC (0-24h) of aliskiren hemifumarate following 4 week oral dietary dosing of aliskiren hemifumarate at 2000 mg.Kg-1 level in male mouse; type: ADME, organism-based; conditions: CB6F1-TGrasH2, mouse, plasma
[6] = t1/2 of aliskiren hemifumarate following 2 week oral dosing of aliskiren hemifumarate at 100 mg.Kg-1 level studied on day 14 in male Callithrix jacchus; type: ADME, organism-based; conditions: marmoset, plasma
[7] = AUC/dose (0-168h) of unlabeled aliskiren hemifumarate following single oral administration of aliskiren hemifumarate at 3 mg.Kg-1 level in marmoset; type: ADME, organism-based, Callithrix jacchus, Plasma; conditions: in vivo
[8] = Tmax of aliskiren hemifumarate following 2 week oral dosing of aliskiren hemifumarate at 50 mg.Kg-1 level studied on day 14 in female Callithrix jacchus; type: ADME, organism-based; conditions: marmoset, plasma
[9] = AUC of aliskiren hemifumarate following single dosing of SPP100B oral solution at 40 mg level studied on day 1 in men; type: ADME, organism-based; conditions: male, human, plasma
[10] = AUC(0-24h) of aliskiren hemifumarate following 2 week oral dosing of aliskiren hemifumarate at 10 mg.Kg-1 level studied on […] in male Callithrix jacchus; type: ADME, organism-based; conditions: marmoset, plasma
[11] = Effect of 2 week oral dosing of aliskiren hemifumarate at 100 mg.Kg-1 level on blood urea nitrogen level in male Callithrix jacchus; type: toxicity, organism-based, Plasma; conditions: marmoset, 336 h
[12] = Cmaxspec of aliskiren hemifumarate following 2 week oral dosing of aliskiren hemifumarate at 10 mg.Kg-1 level studied on day 14 in female Callithrix jacchus; type: ADME, organism-based, Plasma; conditions: marmoset, in vivo, 336 h
[13] = AUC (0-24h) of aliskiren hemifumarate following 4 week oral dietary dosing of aliskiren hemifumarate at 500 mg.Kg-1 level in female mouse; type: ADME, organism-based; conditions: CB6F1-TGrasH2, mouse, plasma
[14] = Effect of 2 week oral dosing of aliskiren hemifumarate at 50 mg.Kg-1 level on hematological parameter values in male Callithrix jacchus; type: toxicity, organism-based, Plasma; conditions: marmoset, in vivo, 336 h
[15] = AUC of aliskiren hemifumarate following single dosing of SPP100B oral solution at 640 mg level studied on day 1 in men; type: ADME, organism-based; conditions: male, human, plasma
[16] = Tmax of aliskiren hemifumarate following 2 week oral dosing of aliskiren hemifumarate at 50 mg.Kg-1 level studied on day 1 in female Callithrix jacchus; type: ADME, organism-based; conditions: marmoset, plasma
CYP2C9 [17] = target: T1, CYP2C9 (Homo sapiens, UniProt P11712); assay: Inhibitory activity of 20 uM SPP100 on 259 Pmoles of cDNA-derived CYP2C9 enzyme in microsome prepared from human lymphoblastoid cell line; type: ADME, microsomes; set-up: conc 20 uM, interact cpd conc 6 uM; conditions: probe diclofenac
T1 sequence (P11712 whole entry): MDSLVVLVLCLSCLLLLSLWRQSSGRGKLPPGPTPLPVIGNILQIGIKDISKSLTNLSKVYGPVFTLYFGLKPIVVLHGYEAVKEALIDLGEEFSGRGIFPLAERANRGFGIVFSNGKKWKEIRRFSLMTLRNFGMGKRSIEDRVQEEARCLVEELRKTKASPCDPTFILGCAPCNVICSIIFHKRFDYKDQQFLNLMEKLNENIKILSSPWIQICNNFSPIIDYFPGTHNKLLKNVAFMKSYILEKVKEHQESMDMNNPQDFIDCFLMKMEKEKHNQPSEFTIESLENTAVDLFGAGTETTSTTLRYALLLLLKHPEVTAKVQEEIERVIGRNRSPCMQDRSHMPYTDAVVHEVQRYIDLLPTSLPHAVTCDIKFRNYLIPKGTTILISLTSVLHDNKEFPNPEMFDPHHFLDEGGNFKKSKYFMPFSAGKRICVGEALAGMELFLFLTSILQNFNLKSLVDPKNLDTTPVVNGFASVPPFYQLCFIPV

[18] = % SPP100 recovered in bile following single intravenous administration of 10 mg.Kg-1 [14C] aliskiren hemifumarate in male rat; type: ADME, organism-based, HAN:WIST(SPF); conditions: in vivo
CYP2D6 = CYP2D6 (Homo sapiens, UniProt P10635); assay: Inhibitory activity of 200 µM SPP100 on cDNA-derived CYP2D6 enzyme in microsome prepared from human lymphoblastoid cell line; type: ADME, microsomes; set-up: conc 200 µM, interact cpd conc 10 uM; conditions: probe bufuralol (10 uM)
Sequence of CYP2D6 (P10635 whole entry): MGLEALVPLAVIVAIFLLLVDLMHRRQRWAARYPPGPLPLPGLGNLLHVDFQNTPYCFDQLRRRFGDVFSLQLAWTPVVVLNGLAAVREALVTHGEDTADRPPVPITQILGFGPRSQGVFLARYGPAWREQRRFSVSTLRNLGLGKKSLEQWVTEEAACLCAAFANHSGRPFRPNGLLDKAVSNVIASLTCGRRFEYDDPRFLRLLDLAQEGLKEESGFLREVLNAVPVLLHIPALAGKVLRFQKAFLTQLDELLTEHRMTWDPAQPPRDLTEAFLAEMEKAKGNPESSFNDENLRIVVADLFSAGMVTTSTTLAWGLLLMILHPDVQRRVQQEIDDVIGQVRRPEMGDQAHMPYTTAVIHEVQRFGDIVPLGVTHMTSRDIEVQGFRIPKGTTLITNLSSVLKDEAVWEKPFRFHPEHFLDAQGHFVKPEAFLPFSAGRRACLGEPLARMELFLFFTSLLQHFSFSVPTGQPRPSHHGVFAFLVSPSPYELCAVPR

CYP2C9 [19] = target: T1, CYP2C9; assay: Inhibitory activity of 200 uM SPP100 on 220 Pmoles of cDNA-derived CYP2C9 enzyme in microsome prepared from human lymphoblastoid cell line; type: ADME, microsomes; set-up: conc 200 uM, interact cpd conc 6 uM; conditions: probe diclofenac
[20] = Concentration of radioactivity in the brown fat following repeated oral administration of [14C] aliskiren hemifumarate at 100 mg.Kg-1 level studied at 2h after 10th dose in rat; type: ADME, organism-based, Albino HAN:WIST, Brown adipose tissue; conditions: in vivo
[21] = Concentration of radioactivity in the kidney medulla following repeated oral administration of [14C] aliskiren hemifumarate at 100 mg.Kg-1 level studied at 2h after 7th dose in rat; type: ADME, organism-based, Albino HAN:WIST, Renal medulla; conditions: in vivo
[22] = Excretion of radioactivity (0-24h) in urine following single oral dose of 500 mg.Kg-1 [14C] aliskiren hemifumarate in mouse; type: ADME, organism-based, TgRasH2; conditions: in vivo
[23] = Excretion of radioactivity (0-24h) in urine following single intravenous dose of 10 mg.Kg-1 [14C] aliskiren hemifumarate in rat; type: ADME, organism-based, Albino HAN:WIST; conditions: in vivo
[24] = Effect of single oral dose of 300 mg [14C]SPP100 on ECG values studied in healthy men; type: toxicity, organism-based; conditions: human, in vivo
[25] = Excretion (0-168h) of radioactivity in faeces following oral administration of [14C] aliskiren hemifumarate at 3 mg.Kg-1 level in marmoset; type: ADME, organism-based, Callithrix jacchus, Feces; conditions: in vivo
[26] = % of radioactivity (48h) recovered in bile of receiver rat following duodenal infusion of radioactivity through bile from donor rat treated with single intravenous administration of 10 mg.Kg-1 [14C] aliskiren hemifumarate; type: ADME, organism-based, HAN:WIST(SPF); conditions: in vivo
[27] = Cmax of radioactivity following repeated oral administration of [14C] aliskiren hemifumarate at 100 mg.Kg-1 level studied after 2h of dosing on day 1 in rat; type: ADME, organism-based, Albino HAN:WIST; conditions: in vivo, read-out: Cmax(1)
[28] = Excretion of radioactivity (0-24h) in faeces following single intravenous dose of 10 mg.Kg-1 [14C] aliskiren hemifumarate in rat; type: ADME, organism-based, Albino HAN:WIST, Feces; conditions: in vivo
[29] = Cmax of [14C] aliskiren hemifumarate following single oral dose of [14C] aliskiren hemifumarate at 500 mg.Kg-1 level in mouse; type: ADME, organism-based, TgRasH2, Plasma; conditions: in vivo
[30] = Concentration of radioactivity in the liver following repeated oral administration of [14C] aliskiren hemifumarate at 100 mg.Kg-1 level studied at 24h after 10th dose in rat; type: ADME, organism-based, Albino HAN:WIST; conditions: in vivo
Cytochrome P450 4A11 = target: T2, Cytochrome P450 4A11 (Homo sapiens, UniProt Q02928); assay: Metabolic clearance (ul.min.nmol-1 CYP) of aliskiren hemifumarate for CYP4A11 was determined in human liver microsome incubated with [14C]SPP100 hemifumarate; type: ADME; conditions: microsomes
T2 sequence (Q02928 whole entry): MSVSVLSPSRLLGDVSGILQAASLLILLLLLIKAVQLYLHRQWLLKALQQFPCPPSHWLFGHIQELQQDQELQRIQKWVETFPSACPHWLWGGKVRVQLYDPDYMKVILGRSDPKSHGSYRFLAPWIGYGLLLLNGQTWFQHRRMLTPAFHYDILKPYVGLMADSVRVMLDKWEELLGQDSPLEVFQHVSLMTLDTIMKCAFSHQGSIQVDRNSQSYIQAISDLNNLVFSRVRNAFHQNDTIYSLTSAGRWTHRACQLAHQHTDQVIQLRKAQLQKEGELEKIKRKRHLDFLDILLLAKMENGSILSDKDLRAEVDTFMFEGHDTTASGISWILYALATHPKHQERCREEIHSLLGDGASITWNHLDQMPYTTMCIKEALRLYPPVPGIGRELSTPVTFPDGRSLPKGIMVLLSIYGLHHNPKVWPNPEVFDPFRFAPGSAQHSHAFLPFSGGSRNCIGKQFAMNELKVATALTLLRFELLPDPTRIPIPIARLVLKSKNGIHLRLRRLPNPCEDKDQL

[31] = Apparent Vmax value of metabolism of [14C] aliskiren hemifumarate studied in human liver microsome; type: ADME; conditions: microsomes

With `COCCCOc1cc(C[C@@H](C[C@H](N)[C@@H](O)C[C@H](C(=O)NCC(C)(C)C(N)=O)C(C)C)C(C)C)ccc1OC.COCCCOc1cc(C[C@@H](C[C@H](N)[C@@H](O)C[C@H](C(=O)NCC(C)(C)C(N)=O)C(C)C)C(C)C)ccc1OC.O=C(O)/C=C/C(=O)O` [ALISKIREN FUMARATE] the AUC normalised [1] was 49 (umol.h/L)/(mg/kg), the Tmax [2] was 1.6 h and the AUC(0-t) at 24 h [3] was 84000 ng·h/mL. The Fa [4] was at least 3.4%, the AUC(0-t) at 24 h [5] was 7720 ng·h/mL and the half-life [6] was 7.8 h. For the same compound, the AUC normalised [7] was 1.52 (umol.h/L)/(mg/kg), the Tmax [8] was 1 h and the AUC [9] was 28.5 ng·h/mL. The AUC at 24 h [10] was 33900 ng·h/mL, the BUN_CHANGE_BY [11] was 166% and the Cmax normalised [12] was 0.673 (ug/ml)/(mg/kg). For the same compound, the AUC(0-t) at 24 h [13] was 857 ng·h/mL, the Change in hematology [14] was “OUTCOME = Hematological parameter values did not differ from control values. No animals died during the study” and the AUC [15] was 1190 ng·h/mL. The Tmax [16] was 1 h.

In the case of `COCCCOc1cc(C[C@@H](C[C@H](N)[C@@H](O)C[C@H](C(=O)NCC(C)(C)C(N)=O)C(C)C)C(C)C)ccc1OC`, the inhibition at 20 µM (CYP2C9 [17]) is reported as 0.9%, the Compound recovery [18] is reported as 64.3% and the inhibition at 200 uM (CYP2D6) is reported as 37%. The inhibition at 200 µM (CYP2C9 [19]) was 15.8%.

With `COCCCOc1cc(C[C@@H](C[C@H](N)[C@@H](O)C[C@H](C(=O)NCC([14CH3])([14CH3])C(N)=O)C(C)C)C(C)C)ccc1OC.O=C(O)/C=C/C(=O)O` the Radiolabel recovery [20] was “OUTCOME = Detected”, the Radiolabel recovery [21] was “OUTCOME = Detected” and the Radiolabel recovery [22] was 0.47%. The Radiolabel recovery [23] was 35.6%, the ECG [24] was “OUTCOME = ECG findings were all considered as normal” and the Radiolabel recovery [25] was 97.5%. For the same compound, the Radiolabel recovery [26] was 2.2%, the Cmax [27] was 1090 nM and the Radiolabel recovery [28] was 55.7%. For the same compound, the Cmax [29] was 2170 nM, the Radiolabel recovery [30] was “OUTCOME = Detected” and the CL (Cytochrome P450 4A11) was 4.9 µL·min/nmol. For the same compound, the Vmax [31] was 1807.6 pmol·min/mg.
